Source: patent US20100267637A1, “TREATMENT OF MELANOMA WITH ALPHA THYMOSIN PEPTIDES IN COMBINATION WITH A KINASE INHIBITOR” (SciClone Pharmaceuticals, Inc., priority 2007, published 2010)
Where no end group is shown, it is not given here.

Tested on: murine B16 melanoma cells
Test: Anti-tumor effect: tumor size / tumor volume in mice bearing subcutaneous B16 melanoma
Type: in vivo, C57BL/6 mice
Conditions: for Tumor Volume (cm^3) (Mean ± SD): group mean; for PI (TV), percent inhibition of tumor volume: vs vehicle; for Tumor volumes on Day 15: Length × Width × Width/2
Method: The toxic effects of the dosing regimens were also monitored. […] Meanwhile 9H10 was given in two groups via i.p. on Day 3, 6 and 9. […] Tumor volume and body weight were measured every three days, and tumor weights were measured on Day 16 at the end of the study.
As per aseptic tissue culture procedures, one vial of B16 melanoma cells was removed from the liquid nitrogen stock, and placed into a 37° C. water bath. Gentle swirling was conducted until the content of the vial was thawed. Using tissue culture/sterile procedures, the cells were immediately centrifuged with a TD5A-WS centrifuge at 1000 rpm, 20-25° C., 5 min. After centrifugation, the cells were suspended in 0.1 to 0.5 mL normal saline (NS) and subcutaneously injected into 10 mice (0.1 mL/mouse, about 1×10^6 cells). After 7-10 days, when the tumor diameter was approximately 1 cm, the animals were euthanized with CO2 overdose and the tumors excised. The procedure was repeated with 20 mice to generate a sufficient number of B16 melanoma cells with adequate transplantability.
On the day of tumor implantation, approximately 1×10^6 cells in 0.1 mL were subcutaneously injected on the right axillary area of each mouse. The day of tumor implantation was defined as Day 0.
On Day 3, the animals were randomly assigned into nine different weight-matched and tumor-size-matched groups. Dosing was started on Day 3 using the regimen according to Table 2.
From Day 1 to Day 15, mortality and moribundity were checked twice daily, the body weights were recorded once every 3 days, and tumors were measured using a caliper once every 3 days. At the end of the study (Day 16), the animals were euthanized by CO2 asphyxiation, and the tumors were excised and weighed.
Based on the tumor size, the tumor volume (TV) was calculated with the formula: [TV=(Length×Width×Width)/2]. And the percent inhibition (PI) of TV (PITV) was calculated according to the equation below:
PITV(%)=(TV vehicle−TVdrug treated)/TV vehicle×100
Inter-group comparison was performed in terms of tumor volume, tumor weight and body weight, using a student's t test. P values of less than 0.05 were considered to be statistically significant.

Thymosin Alpha-1 (Ac-SDAAVDTSSEITTKDLKEKKEVVEEAEN; ends and bridges not checked; UniProt P06454 2-29, looked up) [TA-1, 28 amino acid peptide, immunomodulator; test article (SciClone), 6 mg/kg s.c. daily]
Tumor measurement L (length) (Day 9, animal M2): 0.20 cm | Tumor measurement W (width) (Day 9, animal M2): 0.20 cm | Tumor volume (Day 9, animal M2): 0.0040 cm^3 | Tumor measurement L (length) (Day 9, animal M3): 0.50 cm | Tumor measurement W (width) (Day 9, animal M3): 0.50 cm | Tumor volume (Day 9, animal M3): 0.0625 cm^3 | Tumor measurement L (length) (Day 9, animal M4): 0.20 cm | Tumor measurement W (width) (Day 9, animal M4): 0.20 cm | Tumor volume (Day 9, animal M4): 0.0040 cm^3 | Tumor measurement L (length) (Day 9, animal M5): 0.30 cm | Tumor measurement W (width) (Day 9, animal M5): 0.30 cm | Tumor volume (Day 9, animal M5): 0.0135 cm^3 | Tumor Volume (cm^3) (Mean ± SD) (Day 9): 0.009 ± 0.0192 cm^3 | PI (TV), percent inhibition of tumor volume (Day 9): 56.73% | Tumor volume (Day 12, animal F1): 0.0625 cm^3 | Tumor measurements on Day 12, L (Day 12, animal F1): 0.50 cm | Tumor measurements on Day 12, W (Day 12, animal F1): 0.50 cm | Tumor volume (Day 12, animal F2): 0.0625 cm^3 | Tumor measurements on Day 12, L (Day 12, animal F2): 0.50 cm | Tumor measurements on Day 12, W (Day 12, animal F2): 0.50 cm | Tumor volume (Day 12, animal F3): 0.0625 cm^3 | Tumor measurements on Day 12, L (Day 12, animal F3): 0.50 cm | Tumor measurements on Day 12, W (Day 12, animal F3): 0.50 cm | Tumor volume (Day 12, animal F4): 0.1715 cm^3 | Tumor measurements on Day 12, L (Day 12, animal F4): 0.70 cm | Tumor measurements on Day 12, W (Day 12, animal F4): 0.70 cm | Tumor volume (Day 12, animal F5): 0.0005 cm^3 | Tumor measurements on Day 12, L (Day 12, animal F5): 0.10 cm | Tumor measurements on Day 12, W (Day 12, animal F5): 0.10 cm | Tumor volume (Day 12, animal M1): 0.0625 cm^3 | Tumor measurements on Day 12, L (Day 12, animal M1): 0.50 cm | Tumor measurements on Day 12, W (Day 12, animal M1): 0.50 cm | Tumor volume (Day 12, animal M2): 0.1715 cm^3 | Tumor measurements on Day 12, L (Day 12, animal M2): 0.70 cm | Tumor measurements on Day 12, W (Day 12, animal M2): 0.70 cm | Tumor volume (Day 12, animal M3): 0.3645 cm^3 | Tumor measurements on Day 12, L (Day 12, animal M3): 0.90 cm | Tumor measurements on Day 12, W (Day 12, animal M3): 0.90 cm | Tumor volume (Day 12, animal M4): 0.0625 cm^3 | Tumor measurements on Day 12, L (Day 12, animal M4): 0.50 cm | Tumor measurements on Day 12, W (Day 12, animal M4): 0.50 cm | Tumor volume (Day 12, animal M5): 0.3645 cm^3 | Tumor measurements on Day 12, L (Day 12, animal M5): 0.90 cm | Tumor measurements on Day 12, W (Day 12, animal M5): 0.90 cm | Tumor Volume (cm^3) (Mean ± SD) (Day 12): 0.139 ± 0.1301 cm^3 | PI (TV), percent inhibition of tumor volume (Day 12): 59.58% | Tumor measurements on Day 15, L (Day 15, animal F1): 0.70 cm | Tumor volumes on Day 15 (Day 15, animal F1): 0.1715 cm^3 | Tumor measurements on Day 15, W (Day 15, animal F1): 0.70 cm | Tumor measurements on Day 15, L (Day 15, animal F2): 0.70 cm | Tumor volumes on Day 15 (Day 15, animal F2): 0.1260 cm^3 | Tumor measurements on Day 15, W (Day 15, animal F2): 0.60 cm | Tumor measurements on Day 15, L (Day 15, animal F3): 0.60 cm | Tumor volumes on Day 15 (Day 15, animal F3): 0.1080 cm^3 | Tumor measurements on Day 15, W (Day 15, animal F3): 0.60 cm | Tumor measurements on Day 15, L (Day 15, animal F4): 1.00 cm | Tumor volumes on Day 15 (Day 15, animal F4): 0.2450 cm^3 | Tumor measurements on Day 15, W (Day 15, animal F4): 0.70 cm | Tumor measurements on Day 15, L (Day 15, animal F5): 0.30 cm | Tumor volumes on Day 15 (Day 15, animal F5): 0.0135 cm^3 | Tumor measurements on Day 15, W (Day 15, animal F5): 0.30 cm | Tumor measurements on Day 15, L (Day 15, animal M1): 0.70 cm | Tumor volumes on Day 15 (Day 15, animal M1): 0.1715 cm^3 | Tumor measurements on Day 15, W (Day 15, animal M1): 0.70 cm | Tumor measurements on Day 15, L (Day 15, animal M2): 1.00 cm | Tumor volumes on Day 15 (Day 15, animal M2): 0.5000 cm^3 | Tumor measurements on Day 15, W (Day 15, animal M2): 1.00 cm | Tumor measurements on Day 15, L (Day 15, animal M3): 1.00 cm | Tumor volumes on Day 15 (Day 15, animal M3): 0.5000 cm^3 | Tumor measurements on Day 15, W (Day 15, animal M3): 1.00 cm | Tumor measurements on Day 15, L (Day 15, animal M4): 1.00 cm | Tumor volumes on Day 15 (Day 15, animal M4): 0.4050 cm^3 | Tumor measurements on Day 15, W (Day 15, animal M4): 0.90 cm | Tumor measurements on Day 15, L (Day 15, animal M5): 1.00 cm | Tumor volumes on Day 15 (Day 15, animal M5): 0.5000 cm^3 | Tumor measurements on Day 15, W (Day 15, animal M5): 1.00 cm | Tumor Volume (cm^3) (Mean ± SD) (Day 15): 0.274 ± 0.1855 cm^3 | PI (TV), percent inhibition of tumor volume (Day 15): 62.57% | effect on tumor growth in words (daily dosing Days 3-15): effective against the tumor growth | reduction of mean tumor volume in comparison to vehicle control (throughout the course of the study, 6 mg/kg s.c. daily): 50-60%
